One data set addresses T1, CARM1 (Homo sapiens, UniProt Q86X55).
T1 construct: Recombinant baculovirus expressing full-length FLAG-tagged CARM1,CBP and PCAF; FLAG; made in house; host or cells: baculovirus-infected Sf21 cells
T1 sequence (Q86X55 1-608): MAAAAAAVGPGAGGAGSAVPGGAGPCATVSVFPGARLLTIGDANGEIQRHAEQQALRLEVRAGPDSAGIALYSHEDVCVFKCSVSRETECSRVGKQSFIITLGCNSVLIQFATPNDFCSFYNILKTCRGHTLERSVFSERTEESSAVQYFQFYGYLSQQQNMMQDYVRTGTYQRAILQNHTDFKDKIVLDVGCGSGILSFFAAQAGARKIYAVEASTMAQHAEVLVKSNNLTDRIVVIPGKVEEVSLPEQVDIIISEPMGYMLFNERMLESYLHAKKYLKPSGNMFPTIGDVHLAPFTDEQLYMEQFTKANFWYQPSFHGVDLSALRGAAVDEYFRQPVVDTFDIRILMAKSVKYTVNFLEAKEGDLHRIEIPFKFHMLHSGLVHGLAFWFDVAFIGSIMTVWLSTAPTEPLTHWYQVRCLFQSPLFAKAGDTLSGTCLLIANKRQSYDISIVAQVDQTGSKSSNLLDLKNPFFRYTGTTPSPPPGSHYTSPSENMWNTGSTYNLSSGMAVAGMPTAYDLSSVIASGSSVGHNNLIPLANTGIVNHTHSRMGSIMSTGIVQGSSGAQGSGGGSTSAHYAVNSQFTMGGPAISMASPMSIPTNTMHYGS
The experiment in a line: Histone methyltransferase (HMTase) assay, CARM1. In kind it is biochemical. As to conditions: even at 100 μM. On the procedure:
Recombinant baculovirus expressing full-length FLAG-tagged CARM1,CBP and PCAF were purified by immunoaffinity chromatography using M2-agarose beads followed by elution with FLAG peptide. Baculovirus-expressed full-length hexahistidine-tagged p300, and G9a were purified using Ni-NTA affinity chromatography as described previously^30.
(§1) The deacetylation assay was performed as per standard protocol^31. For SirT2 deacetylase assay, 50 ng of bacterially expressed, recombinant enzyme was added in the presence or absence of cofactor NAD^+. HMTase was performed as reported earlier^31.

The target of another data set is HDAC1 (Homo sapiens, UniProt Q13547). The data set is described as follows: Histone deacetylase assay, HDAC1. As to conditions: even at 100 μM. It counts as biochemical. Here is the method: as §1
The test system of data set [1] is KB cells. The data set is described as follows: In vitro wound-healing assay. In kind it is cell-based. As to conditions: 24 h, in the presence of serum. On the procedure:
Cells in medium containing 10% FBS were seeded in 30 mm dishes. After the cells grew to confluence, wounds of constant diameter were made by sterile plastic pipette tip (200-μl) by scratching the monolayers. Cells were washed with the serum free medium twice and refreshed with medium with or without 10% FBS. Cells were treated with or without the HAT inhibitor for 24 h along with 10% serum. The wound photographs were taken under phase-contrast microscope. Serum positive and negative cells act as positive and negative control for the experiments respectively.

The subject of data set [2] is KB cells. The experiment in a line: FACS cell cycle analysis. In kind it is cell-based. The settings on record: 24 h, concentration dependent. On the procedure:
KB cells were grown in the presence or absence of CTK7A for 24 h with the indicated concentration. Cells were grown in presence of CTK7A for 2 h in absence of serum followed by addition of 10% Serum. Briefly cells were harvested by mild trypsinization (0.25%) followed by centrifugation at 2000 rpm for 10 minutes at 4° C. Cells were washed with cold PBS by centrifugation at 2000 rpm for 10 minutes at 4° C. Cells were fixed in cold 70% Ethanol which was added drop wise along with mild vortexing.
Samples were left for 12 hrs, after which Ethanol was removed followed by two washes in cold PBS. RNase (100 μg/ml) treatment was subsequently given at 37° C./30 minutes to ensure only DNA staining. 50 μg/ml Propidium Iodide was added for staining. Cells were sorted and analyzed by flow cytometry for the cell cycle distribution using inbuilt software of BD FACScalibur instrument. Analysis was done in FL2 channel.

The nature of data set [3]: Toxicity in mice after intraperitoneal administration. It counts as in vivo. On the procedure:
The in vitro and cell line based studies prompted us to study the role of CTK7A in xenograft mice. […] In order to test the effect of CTK7A on tumor growth, KB cells (2×10^6 cells) were inoculated in nude mice in the right and left flanks, respectively and treated them intraperitoneally with 100 mg/kg body weight/twice a day (for detail see Materials and Methods). […] KB cell tumors were 50% smaller in mice treated with CTK7A than in control untreated mice. The differences in the tumor size between xenografts (Control vs treated) was statistically significant (p<0.05). The levels of H3 acetylation and that of other proteins (e.g. NPM1, GAPDH, p300) were determined using IHC. […] It was observed that CTK7A decreased the levels of H3K9, K14 acetylation (as probed by H3AcK9AcK14) and ac-p300 (FIG. 6b and FIG. 6c). Further to see the site specific effect of CTK7A mediated HAT inhibition on histone acetylation, IHC was done with site specific antibodies. […] Moreover, the levels of COX2, which is induced in many cell types by mitogens, growth factors, cytokine and tumor promoters and has been implicated in many cancers, including oral cancer was also found to be suppressed in CTK7A treated tumors (FIG. 6b).

The next data set in a line: Solubility test in water. In kind it is physicochemical. On the procedure: To a solution of curcumin in methanol (10 mg, 0.027 Mmol) […]. After incubation for 24 h, the solvent was evaporated in vacuum. The residue […] was purified with repeated recrystallization and filtration method using TLC (CHCl3/MeOH=4:1; Rf=0.5). This gave CTK7 as a dark orange powder (7.18 mg, 55%) which was analyzed by H^1 NMR, Melting point test, Solubility test and ESI-MS.
To a solution of CTK7 in methanol (50 mg, 0.1031 mmol), (10 ml) of Sodium ethoxide was added ([…], 0.1175 mmol) and the reaction mixture was stirred at room temperature for 90 minutes. The solvent was evaporated in vacuum and the residue was washed with hexane, diethyl ether and ethyl acetate. Product was confirmed through H^1 NMR, Solubility test, melting point.

The values below come from patent US20120165384A1, “INHIBITION OF HISTONE ACETYLTRANSFERASES BY CTK7A AND METHODS THEREOF” (JAWAHARLAL NEHRU CENTRE FOR ADVANCED SCIENTIFIC RESEARCH, priority 2009, published 2012).

Sequence of HDAC1 (Q13547 whole entry, species assumed): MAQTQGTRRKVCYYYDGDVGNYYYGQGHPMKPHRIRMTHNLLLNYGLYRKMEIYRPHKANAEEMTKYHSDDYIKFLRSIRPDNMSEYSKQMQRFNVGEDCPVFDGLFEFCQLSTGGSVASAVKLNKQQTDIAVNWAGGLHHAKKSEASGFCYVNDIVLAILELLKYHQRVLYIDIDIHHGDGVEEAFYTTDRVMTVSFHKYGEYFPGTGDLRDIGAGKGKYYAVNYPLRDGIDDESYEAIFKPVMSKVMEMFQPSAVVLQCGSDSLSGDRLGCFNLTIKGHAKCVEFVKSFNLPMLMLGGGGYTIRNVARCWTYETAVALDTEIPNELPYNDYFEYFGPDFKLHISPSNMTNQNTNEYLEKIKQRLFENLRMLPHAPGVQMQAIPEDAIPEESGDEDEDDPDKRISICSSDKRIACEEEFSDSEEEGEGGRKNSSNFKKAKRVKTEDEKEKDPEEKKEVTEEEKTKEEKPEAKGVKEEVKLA

`COc1cc([O-])cc(C=CC2=NN(c3ccc(C(=O)[O-])cc3)C(C=Cc3cc([O-])cc(OC)c3)C2)c1.[Na+].[Na+].[Na+]` (stereo not shown) [CTK7A, Sodium 4-(3,5-bis(3-methoxy-5-oxidostyryl)-4,5dihydro-1H-pyrazole-1-yl)benzoate]: the “effect on CARM1 activity” value at CARM1 is recorded as “unaffected”. The “effect on HDAC1 activity” value on HDAC1 is given as “unaffected”. Also, in the data set on KB cells [1], the wound healing activity entry is reported as “reduction”. In the data set on KB cells [2], the “percentage of polyploid cells (>4N)” value is given as “dramatic increase”. In addition, the body weight loss entry in data set [3] (doses up to 100 mg/kg body weight/twice a day during 1 month) is on record as “no observed weight loss”. Further, the toxicity to mice entry in data set [3] (intraperitoneal (i.p) administration) is “not toxic”. Moreover, in “Solubility test in water”, the solubility in water result is listed as “Soluble”.
